Where two headings read alike, the source gives them in different places. Where a SMILES comes first, the peptide text is derived from it. Bridges are numbered along the chain shown (N, C = ends). Where no end group is shown, it is not given here.
Tests used:
E. coli FhuA = molecular target: T1, E. coli FhuA (Escherichia coli, UniProt P06971); test: biochemical; format: binding, Escherichia coli MG1655
T1 sequence (P06971 34-747): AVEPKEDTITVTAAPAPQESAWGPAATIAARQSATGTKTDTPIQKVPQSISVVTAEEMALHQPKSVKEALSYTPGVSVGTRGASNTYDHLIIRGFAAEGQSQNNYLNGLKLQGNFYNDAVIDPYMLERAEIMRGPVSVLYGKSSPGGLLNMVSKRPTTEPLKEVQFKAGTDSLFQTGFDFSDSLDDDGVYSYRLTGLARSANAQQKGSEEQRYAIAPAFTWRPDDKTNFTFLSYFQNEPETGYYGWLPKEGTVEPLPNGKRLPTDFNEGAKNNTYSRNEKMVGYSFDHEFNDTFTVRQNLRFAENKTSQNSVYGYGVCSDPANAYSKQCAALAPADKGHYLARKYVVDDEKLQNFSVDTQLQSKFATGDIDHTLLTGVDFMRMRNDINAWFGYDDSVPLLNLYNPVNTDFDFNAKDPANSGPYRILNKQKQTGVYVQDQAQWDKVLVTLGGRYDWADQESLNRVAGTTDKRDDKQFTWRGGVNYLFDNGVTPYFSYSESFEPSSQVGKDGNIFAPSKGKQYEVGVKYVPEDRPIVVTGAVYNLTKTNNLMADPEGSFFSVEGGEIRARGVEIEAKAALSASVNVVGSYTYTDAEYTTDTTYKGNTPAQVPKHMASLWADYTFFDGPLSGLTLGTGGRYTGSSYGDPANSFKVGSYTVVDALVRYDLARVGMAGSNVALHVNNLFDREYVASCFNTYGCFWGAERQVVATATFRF

[1] = tested on: E. coli W3110 wildtype and tonB− strains; test: tonB antibacterial assay; format: cell-based; details: spot-on-lawn, 10 μL MccJ25 in MeOH (1-100 μg/mL), LB agar, 37°C overnight
E. coli RNA polymerase = details: in vitro; cited from earlier work
[2] = tested on: Escherichia and Salmonella species; details: cited from earlier work
Salmonella = details: mouse model of infection by Salmonella; cited from earlier work
[3] = complex fluid matrices; cited from earlier work
FhuA = details: cited from earlier work
[4] = molecular target: FhuA from E. coli MG1655 with an internal His-tag (E. coli) (UniProt P06971); test: native MS
FhuA (Escherichia coli) = FhuA (Escherichia coli) (UniProt P06971); test: ITC; details: cited from earlier work
human erythrocytes = details: cited from earlier work

With “t-MccJ25: MccJ25 hydrolyzed between Phe10 and Val11, obtained by incubation of MccJ25 in the presence of thermolysin (chain 1 GGAGHVPEYF; chain 2 VGIGTPISFYG; also: lactam at chain A 8 to a chain's N-terminus)” the “binding to FhuA (result in words)” value (E. coli FhuA) was “absence of binding to FhuA”.

In the case of `CC[C@H](C)[C@H](NC(=O)CNC(=O)[C@@H](NC(=O)[C@H](Cc1ccccc1)NC(=O)[C@H](Cc1ccc(O)cc1)NC(=O)[C@@H]1CCC(=O)NCC(=O)NCC(=O)N[C@@H](C)C(=O)NCC(=O)N[C@@H](Cc2c[nH]cn2)C(=O)N[C@@H](C(C)C)C(=O)N2CCC[C@H]2C(=O)N1)C(C)C)C(=O)NCC(=O)N[C@H](C(=O)N1CCC[C@H]1C(=O)N[C@H](C(=O)N[C@@H](CO)C(=O)N[C@@H](Cc1ccccc1)C(=O)N[C@@H](Cc1ccc(O)cc1)C(=O)NCC(=O)O)[C@@H](C)CC)[C@@H](C)O` [MccJ25, microcin J25] (GGAGHVPEYFVGIGTPISFYG-OH; lactam N-8; C-terminus assumed), the “internalization dependence on TonB” value [1] is listed as “dependent on the FhuA-TonB system”, the “inhibition of E. coli RNA polymerase” value (E. coli RNA polymerase) is listed as “inhibit E. coli RNA polymerase with equal efficiency in vitro” and the antibacterial activity/spectrum [2] is listed as “potent antibacterial activity exclusively against Escherichia and some Salmonella species”. For the same compound, the antibacterial activity/spectrum ([2]; through inhibition of RNA polymerase) was “potent, narrow spectrum antibacterial activity against Escherichia and Salmonella species”, the “antibacterial activity in vivo” value (Salmonella) was “in vivo in a mouse model of infection by Salmonella” and the “antibacterial activity ex vivo” value [3] was “has been demonstrated both ex vivo, in complex fluid matrices”.

For `CO[C@H]1/C=C/O[C@@]2(C)Oc3c(C)c(O)c4c(c3C2=O)C(=O)C(N2CCOCC2)=C(NC(=O)/C(C)=C\C=C\[C@H](C)[C@H](O)[C@@H](C)[C@@H](O)[C@@H](C)[C@H](OC(=O)CC(=O)OCC2CCCN(C)C2)[C@@H]1C)C4=O` (stereo partly shown) [CGP 4832], the “transport by FhuA” value (FhuA) is listed as “can transport”.

Work on MccJ25[His5Lys] (peptide) yielded a Kd [4] of 16900 nM.

For `CO[C@H]1/C=C/O[C@@]2(C)Oc3c(C)c(O)c4c(O)c(cc(O)c4c3C2=O)NC(=O)/C(C)=C\C=C\[C@H](C)[C@H](O)[C@@H](C)[C@@H](O)[C@@H](C)[C@H](OC(C)=O)[C@@H]1C` [rifamycin], the “transport by FhuA” value (FhuA) is listed as “cannot efficiently transport”.

In the case of MccJ25 (from UniProt Q9X2V7), the Kd (FhuA (Escherichia coli)) is listed as 1200 nM.

In the case of `CC[C@H](C)[C@H](NC(=O)CNC(=O)[C@@H](NC(=O)[C@H](Cc1ccccc1)NC(=O)[C@H](Cc1ccc(O)cc1)NC(=O)[C@@H]1CCC(=O)NCC(=O)NCC(=O)N[C@@H](C)C(=O)NCC(=O)N[C@@H](Cc2cnc[nH]2)C(=O)N[C@@H](C(C)C)C(=O)N2CCC[C@H]2C(=O)N1)C(C)C)C(=O)NCC(=O)N[C@H](C(=O)N1CCC[C@H]1C(=O)N[C@H](C(=O)N[C@@H](CO)C(=O)N[C@@H](Cc1ccccc1)C(=O)N[C@@H](Cc1ccc(O)cc1)C(=O)NCC(=O)O)[C@@H](C)CC)[C@@H](C)O` [MccJ25, microcin J25] (GGAGHVPEYFVGIGTPISFYG-OH; lactam N-8), the Kd (E. coli FhuA) is given as 980 ± 20 nM and the haemolytic activity (human erythrocytes) is given as “without haemolytic activity on human erythrocytes”.

— paper PMC3992131 (Nature chemical biology, 2014)
